Experiments:
[1] = molecular target: GGTase I (RhoA as substrate) (Homo sapiens, UniProt P49354+P53609); test: GGTase I filter-binding assay, RhoA as substrate (library screens); type: biochemical; conditions: compound 50 μM, DMSO = 100%, smaller = better inhibition
Description: (§1) The pilot library was screened for inhibitors of protein geranylgeranyltransferase type I. Protein prenyltransferase assays were carried out by using filter binding. Two different substrates, RhoA and K-Ras4B, were used for the assay. RhoA ends with the CaaL motif and is an exclusive substrate for GGTase I, while K-Ras4B ends with the CaaX motif and is modified by both GGTase I and FTase.
(§2) In the assay, a fixed concentration of 100 μM was used and the results are plotted for the inhibition of RhoA (vertical axis) as well as for K-Ras4B (horizontal axis). […] They are 2,6-diaryl-N-tosyl-1,2,5,6-tetrahydropyridine-3-carboxylic acids, except P2-D5 that is missing an aryl substituent at C2.
The % activity of GGTase I was determined as follows: a working solution that contained each compound in DMSO at the concentration of 1 mM was prepared. The working solution was added to GGTase I reaction mixture so that the final concentration of the compound is 50 μM. GGTase I activity was assayed by incubating [^3H]GGPP with K-Ras4B or RhoA protein in the presence of GGTase I and examining radioactivity incorporated into the substrate protein by spotting onto a filter paper. After washing with TCA, ethanol and acetone, the radioactivity retained on the filter was determined by the use of a scintillation counter. GGTase I activity in the presence of DMSO was taken as a 100% value and the activity in the presence of the compound was shown as percent activity compared with the 100% value. […] For 6-aryl-4-mercapto-N-sulfonyl-piperidine-3-carboxylic acid 11 the 4-mercapto substituent appeared critical to endowing GGTase inhibitory activity. […] 4-Chlorobenzylthio substituent was the next best; 12 compounds out of 21 containing the 4-chlorobenzylthio moiety were active. […]
A collection of 138 heterocycles was screened for their ability to inhibit the activity of human GGTase-I to geranylgeranylate K-Ras4B or RhoA. […] After 30 min, the degree of incorporation of tritiated geranylgeranyl groups was measured using a scintillation counter.

[2] = molecular target: GGTase I (K-Ras4B as substrate) (Homo sapiens, UniProt P49354+P53609); test: GGTase I filter-binding assay, K-Ras4B as substrate (library screens); type: biochemical; conditions: compound 50 μM; DMSO = 100%; smaller = better inhibition; 50 µM
Description: as §1, §2
The % activity of GGTase I was determined as follows: a working solution that contained each compound in DMSO at the concentration of 1 mM was prepared. The working solution was added to GGTase I reaction mixture so that the final concentration of the compound is 50 μM. GGTase I activity was assayed by incubating [^3H]GGPP with K-Ras4B or RhoA protein in the presence of GGTase I and examining radioactivity incorporated into the substrate protein by spotting onto a filter paper. After washing with TCA, ethanol and acetone, the radioactivity retained on the filter was determined by the use of a scintillation counter. GGTase I activity in the presence of DMSO was taken as a 100% value and the activity in the presence of the compound was shown as percent activity compared with the 100% value. […] For 6-aryl-4-mercapto-N-sulfonyl-piperidine-3-carboxylic acid 11 the 4-mercapto substituent appeared critical to endowing GGTase inhibitory activity. […] 4-Chlorobenzylthio substituent was the next best; 12 compounds out of 21 containing the 4-chlorobenzylthio moiety were active. 4-Benzylthio substituent was also good; 7 piperidines out of 21 bearing 4-benzylthio group were active. […] 19 imines (C15>C12=C41>C40>C01=C11>C05=C10=C30=C35=C37=C38>C02, C03, C04, C06, C39=C43) out of 21 appeared in the GGTIs. […] This corresponds to 47 6-aryl-4-mercapto-N-sulfonyl-piperidine-3-carboxylic acids out of 357 compounds.
A collection of 138 heterocycles was screened for their ability to inhibit the activity of human GGTase-I to geranylgeranylate K-Ras4B or RhoA. Purified GGTase-I was incubated with its substrate protein K-Ras4B or RhoA, [^3H]GGPP, and the 138 compounds. After 30 min, the degree of incorporation of tritiated geranylgeranyl groups was measured using a scintillation counter.

Cc1ccccc1S(=O)(=O)N1C(c2ccc(Cl)cc2)CC=C(C(=O)O)[C@@H]1c1ccccc1 (some centres unmarked) [drawing 39]
% activity of GGTase I for RhoA in the presence of the compound [1]: 12.4% | % activity of GGTase I for K-Ras4B in the presence of the compound [2]: 15.6%
